Data: ChEMBL document CHEMBL1201862, “PubChem BioAssay data set” (2004)
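96-well plates; 48 h exposure; 5 concentrations. Endpoints by linear interpolation between flanking doses. Not reached: highest tested concentration assigned. GI50: concentration for 50% inhibition of growth.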 Calls of active or inactive are those of the source. No stated cut-off is given here; in the data, active = GI50 up to about 1.1 µM and inactive = higher.

What was measured:
Assay in all cases: DTP human tumour cell line panel, 48 h
A498 = system: A498
A549 = system: A549
ACHN = system: ACHN
CCRF-CEM = system: CCRF-CEM
DU-145 = system: DU-145
EKVX = system: EKVX
HCT-15 = system: HCT-15
HOP-62 = system: HOP-62
Hs-578T = system: Hs-578T
M14 = system: M14
MCF7 = system: MCF7
MDA-MB-231 = system: MDA-MB-231
MDA-MB-435 = system: MDA-MB-435
RPMI-8226 = system: RPMI-8226
SK-MEL-5 = system: SK-MEL-5
SN12C = system: SN12C
TK-10 = system: TK-10
U-251 = system: U-251
UACC-257 = system: UACC-257

Structure (SMILES)	GI50 (A498)	GI50 (A549)	GI50 (ACHN)	GI50 (CCRF-CEM)	GI50 (DU-145)	GI50 (EKVX)	GI50 (HCT-15) [µM]	GI50 (HOP-62)	GI50 (Hs-578T)	GI50 (M14)	GI50 (MCF7)	GI50 (MDA-MB-231)	GI50 (MDA-MB-435)	GI50 (RPMI-8226)	GI50 (SK-MEL-5)	GI50 (SN12C)	GI50 (TK-10)	GI50 (U-251)	GI50 (UACC-257)
O=C1/C(=C/c2ccc(F)cc2)CNC/C1=C\c1ccc(F)cc1	2.25 µM (inactive)	2.92 µM (inactive)	1.71 µM (inactive)	0.445 µM (active)	1.75 µM (inactive)	1.94 µM (inactive)	0.498	1.78 µM (inactive)	4.6 µM (inactive)	1.99 µM (inactive)	0.813 µM (active)	2.39 µM (inactive)	2.49 µM (inactive)	0.275 µM (active)	1.42 µM (inactive)	2.14 µM (inactive)	2.21 µM (inactive)	0.41 µM (active)	3.76 µM (inactive)
CCOC(=O)CN1C(=O)c2c(NC(=O)C(=O)O)cccc2S1(=O)=O	> 100 µM (inactive)	> 100 µM (inactive)	> 100 µM (inactive)	> 100 µM (inactive)	> 100 µM (inactive)	> 100 µM (inactive)	> 100	> 100 µM (inactive)	> 100 µM (inactive)	> 100 µM (inactive)	> 100 µM (inactive)	> 100 µM (inactive)	> 100 µM (inactive)	> 100 µM (inactive)	> 100 µM (inactive)	> 100 µM (inactive)	> 100 µM (inactive)	> 100 µM (inactive)	> 100 µM (inactive)
COC(=O)C1=C(O)C(C(=O)OC)[C@@]2(O)[C@@H](C(=O)OC)[C@H](C)[C@@H](C)[C@@H]1[C@@H]2C(=O)OC (stereo not given in full)	> 100 µM (inactive)		> 100 µM (inactive)	60.5 µM (inactive)	> 100 µM (inactive)	52.8 µM (inactive)	41.5	89.5 µM (inactive)	27.4 µM (inactive)	67.5 µM (inactive)	38.1 µM (inactive)	> 100 µM (inactive)	17.9 µM (inactive)	51.1 µM (inactive)		> 100 µM (inactive)	> 100 µM (inactive)	86.5 µM (inactive)	46.6 µM (inactive)
O=[N+]([O-])c1ccc(S(=O)(=O)Cc2ccccc2)c2nonc12	> 100 µM (inactive)	29.4 µM (inactive)	22 µM (inactive)	9.06 µM (inactive)	18.7 µM (inactive)	21.1 µM (inactive)	22.3	22.7 µM (inactive)	24.3 µM (inactive)	16.4 µM (inactive)	20.2 µM (inactive)	22.5 µM (inactive)	19.2 µM (inactive)	25.1 µM (inactive)	18.5 µM (inactive)	13.9 µM (inactive)	18.1 µM (inactive)	18.2 µM (inactive)	16.1 µM (inactive)
O=C(/N=N/c1cc(Cl)ccc1Cl)NNc1cc(Cl)ccc1Cl	26.9 µM (inactive)			13.6 µM (inactive)	30.3 µM (inactive)		16.5	17.3 µM (inactive)	25.5 µM (inactive)	17.1 µM (inactive)	18.4 µM (inactive)	15.7 µM (inactive)	13.7 µM (inactive)	11.9 µM (inactive)	12.7 µM (inactive)	21.4 µM (inactive)		16.7 µM (inactive)	
O=C1CSC2(CC(/C=C/c3ccccc3)=NN2c2cccc(S(=O)(=O)O)c2)N1c1nc2ccccc2s1 (stereo not given)	26 µM (inactive)	32.8 µM (inactive)	27 µM (inactive)	19.1 µM (inactive)	25.4 µM (inactive)	60.4 µM (inactive)	32.6		55.5 µM (inactive)	41.3 µM (inactive)	17.1 µM (inactive)	24.5 µM (inactive)	19.5 µM (inactive)	24.6 µM (inactive)	44.6 µM (inactive)	28.7 µM (inactive)	19.5 µM (inactive)	20.6 µM (inactive)	60 µM (inactive)
CSc1ccc(Nc2cc(=O)[nH]c(=O)[nH]2)cc1	> 100 µM (inactive)	> 100 µM (inactive)	> 100 µM (inactive)	> 100 µM (inactive)	> 100 µM (inactive)		> 100		> 100 µM (inactive)	> 100 µM (inactive)	> 100 µM (inactive)	> 100 µM (inactive)	> 100 µM (inactive)	> 100 µM (inactive)	> 100 µM (inactive)	> 100 µM (inactive)		> 100 µM (inactive)	> 100 µM (inactive)
O=C1/C(=C/c2ccc(Cl)cc2)CCC/C1=C\c1ccc(O)c(CN2CCCCC2)c1	14.6 µM (inactive)	27.2 µM (inactive)	15.7 µM (inactive)	6.01 µM (inactive)	17.1 µM (inactive)	18.1 µM (inactive)	12.2	39 µM (inactive)	15.7 µM (inactive)	20.8 µM (inactive)	47.1 µM (inactive)	26.9 µM (inactive)	17 µM (inactive)		15.1 µM (inactive)	26.6 µM (inactive)	29.2 µM (inactive)	16.6 µM (inactive)	17.8 µM (inactive)
